{"source": "patent US12157778B2", "about": "“Peptides for activation of cell signaling in osteoprogenitor cells” (The Regents of the University of California, priority 2018, dated 2024)", "key": {"[1]": {"assay": "Alendronate-conjugated peptides on bone metabolism in 2-month-old female mice", "type": "in vivo", "conditions": "at the two doses used", "description": "FIGS. 15A-15C show two-month-old female mice treated with PBS control; YLL3-Aln or YLL8-Aln at 100 […], subcutaneously, once every two weeks for 2 doses; or YLL3-Aln or YLL8-Aln at 500 m/kg, one IV dose. Mice were euthanized at 28 days (n=4-5/group).\nTrabecular bone formation was measured in the distal femoral metaphysis. *, p<0.05 vs PBS. Arrows show double labeled bone surfaces.\nNext, the effects of alendronate-conjugated peptides on bone metabolism were evaluated. Two-month-old female mice were treated with PBS control, YLL3-Ale or YLL8-Ale at 100 μg/kg (25 nmol) or 300 μg/kg (75 nmol), subcutaneously, once every other week, or with one IV dose of 500 μg/kg. Two injections were given per mouse. The total cumulative doses were between 200 and 600 μg/kg/month (25-150 nmol), respectively. Alendronate concentration was approximately 1/10-⅕ of the compound. […] In contrast, YLL8-Ale at the 300 μg/kg×2 SC doses or 500 μg/kg×1 IV dose increased trabecular bone volume by more than 20% (p<0.05 vs. PBS) which was associated with increased trabecular thickness (30%, p<0.05 vs. PBS) (FIG. 15A and FIG. 15B) and number (28%, p<0.05 vs. PBS). Both 100 μg/kg and 300 μg/kg doses of YLL8-Ale increased cortical bone volume by approximately 16% and cortical thickness by approximately 15% (FIG. 15C)."}, "[2]": {"assay": "In vivo anabolic effects, 4-month-old mice, 5 μg/kg s.c. 5×/week for 21 days", "conditions": "for increase in femoral trabecular bone volume: vs PBS, YLL8 5 μg/kg, hPTH (1-34) 25 μg/kg", "description": "FIGS. 10A-10D show the effects of YLL8 on bone formation in vivo. […] All mice received Alizarin red and Calcein at −7 and −2 days before euthanization.\nFour-month-old female and male mice were treated with PBS control, YLL3 at 5 μg/kg, YLL8 at 5 μg/kg, or PTH at 25 μg/kg, sc., 5×/week for 28 days (n=4-6/group). Trabecular bone volume was obtained by micro CT scans at the distal femoral metaphysis. Osteocalcin and CTX-1 were measured at the serum.\nIn another similar study to determine whether YLLs would affect bone metabolism in vivo, YLL3 and YLL8 were injected into 4-month-old female and male mice at 5 μg/kg subcutaneously ([…]). hPTH (1-34) was injected s.c. at 25 μg/kg, 5×/week as a positive control. […] Both YLL8 and hPTH (1-34) increased femoral trabecular bone volume by approximately 130% in the female mice, compared to the PBS-treated mice. In the male mice, YLL8 increase femoral trabecular bone volume by approximately 70%, and hPTH (1-34) increased femoral trabecular bone volume by approximately 30% (FIG. 10A). Mineral apposition rate, a parameter corresponding to osteoblast activity, was increased by more than 70% in the females and about 30% in the males, resulting in an overall increase in surface-based bone formation rate (FIGS. 10A, 10B). The anabolic effect of YLLs was confirmed by increased trabecular bone mass measured at the distal femur metaphysis by micro CT and serum level of osteocalcin (FIG. 11)."}}, "data": [{"smiles": "Cc1ccccc1NC(=O)Nc1ccc(CC(=O)N[C@@H](CCCNC(N)=O)C(=O)N[C@@H](CCC(=O)O)C(=O)N[C@@H](CO)C(=O)N[C@H](C(=O)NCCOCCOCCNC(=O)CCC(=O)NCCOCCOCCNC(=O)CCC(=O)N[C@@H](CCCCNC(=O)[C@H](N)CSC2CC(=O)N(CC3CCC(C(=O)NCCCC(O)(P(=O)(O)O)P(=O)(O)O)CC3)C2=O)C(N)=O)C(C)C)cc1", "note": "(stereo partly shown) [YLL3-Ale]", "values": [{"measurement": "bone formation or bone mass compared to PBS control", "setting": "[1]", "value": "failed to achieve statistically significant differences"}]}, {"smiles": "Cc1ccccc1NC(=O)Nc1ccc(CC(=O)N[C@@H](CCCCNC(=O)CCc2cccnc2)C(=O)N[C@@H](CCCC(=O)O)C(=O)NC2(C(N)=O)CCCCC2)cc1", "note": "[YLL8]", "values": [{"measurement": "body weights and visible side-effects", "setting": "[2]; 5 μg/kg s.c., daily injection for 21 days", "value": "did not change body weights or cause any visible side-effects"}]}, {"smiles": "CC[C@H](C)[C@H](NC(=O)[C@H](CCC(=O)O)NC(=O)[C@H](CO)NC(=O)[C@@H](NC(=O)[C@@H](N)CO)C(C)C)C(=O)N[C@@H](CCC(N)=O)C(=O)N[C@@H](CC(C)C)C(=O)N[C@@H](CCSC)C(=O)N[C@@H](Cc1cnc[nH]1)C(=O)N[C@@H](CC(N)=O)C(=O)N[C@@H](CC(C)C)C(=O)NCC(=O)N[C@@H](CCCCN)C(=O)N[C@@H](Cc1cnc[nH]1)C(=O)N[C@@H](CC(C)C)C(=O)N[C@@H](CC(N)=O)C(=O)N[C@@H](CO)C(=O)N[C@@H](CCSC)C(=O)N[C@@H](CCC(=O)O)C(=O)N[C@@H](CCCN=C(N)N)C(=O)N[C@H](C(=O)N[C@@H](CCC(=O)O)C(=O)N[C@@H](Cc1c[nH]c2ccccc12)C(=O)N[C@@H](CC(C)C)C(=O)N[C@@H](CCCN=C(N)N)C(=O)N[C@@H](CCCCN)C(=O)N[C@@H](CCCCN)C(=O)N[C@@H](CC(C)C)C(=O)N[C@@H](CCC(N)=O)C(=O)N[C@@H](CC(=O)O)C(=O)N[C@H](C(=O)N[C@@H](Cc1cnc[nH]1)C(=O)N[C@@H](CC(N)=O)C(=O)N[C@@H](Cc1ccccc1)C(=O)O)C(C)C)C(C)C", "note": "[hPTH (1-34), Teriparatide]", "values": [{"measurement": "increase in femoral trabecular bone volume", "setting": "[2]; female mice", "value": "approximately 130%"}, {"measurement": "increase in femoral trabecular bone volume", "setting": "[2]; male mice", "value": "approximately 30%"}]}]}
